Where two headings read alike, the source gives them in different places.
Columns and labels:
[1] = system: Cryptococcus deuterogattii; assay: checkerboard drug interaction (FICI, MICc);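 for all read-outs here: simplified diagonal checkerboard screen pairing antifungal drugs with FPPS inhibitors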; assay type: cell-based; conditions: C. deuterogattii; for INH FD (MIC-MICc fold decrease): fold decrease of inhibitor MIC
Experimental: (§1) Drug interactions between antifungals and FPPS inhibitors were investigated using a simplified checkerboard diagonal screening method ([45]). […] FICIs were determined according to the Loewe additivity model ([17]).

[2] = system: Aspergillus flavus; assay: checkerboard drug interaction (FICI, MICc);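 note: simplified diagonal checkerboard screen pairing azole antifungals with FPPS inhibitors, FICI calculated under the Loewe additivity model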; assay type: cell-based; set-up: INH MICc (KET:INH) / INH MICc (FLC:INH): unit not given beside the values; conditions: A. flavus
[3] = system: Candida albicans; assay: MIC/MFC broth microdilution (CLSI); assay type: cell-based; conditions: Candida albicans SC5314
Experimental: (§2) Antifungal susceptibility was determined by broth microdilution according to the CLSI guidelines described in M27-Ed4 ([16]). […] MFC was determined by back-plating drug-treated cultures from MIC broths onto SDA plates. The MFC was defined as the lowest concentration from which no colonies could be cultured.

[4] = system: eight fungal species; assay: checkerboard interaction with azoles, summary across the eight species; assay type: cell-based; conditions: geometric mean MIC in combination with azoles
Description: Synergy between lipophilic FPPS inhibitors and azole antifungals was investigated by determining the fractional inhibitory concentration index (FICI) (Fig. 2; Table S1 Fig. S1) ([17]). […]. Derivatives PLA9 and 11, and PDA9, 11, and 12 antagonized azoles in C. albicans, C. neoformans, and C. deuterogattii, yet were largely synergistic in C. glabrata and S. cerevisiae. […].

[5] = system: Cryptococcus neoformans; assay: checkerboard drug interaction (FICI, MICc);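 for all read-outs here: antifungal plus FPPS inhibitor pairs tested against Cryptococcus neoformans by simplified diagonal checkerboard screening, FICI computed under the Loewe additivity model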; assay type: cell-based; conditions: C. neoformans; for INH FD (MIC-MICc fold decrease): fold decrease of inhibitor MIC
Experimental: as §1

[6] = system: Candida glabrata; assay: checkerboard drug interaction (FICI, MICc);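 for all read-outs here: simplified diagonal checkerboard screen pairing antifungals with FPPS inhibitors, FICI calculated under the Loewe additivity model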; assay type: cell-based; conditions: C. glabrata; for INH FD (MIC-MICc fold decrease): fold decrease of inhibitor MIC
Experimental: as §1

[7] = system: Aspergillus fumigatus; assay: checkerboard drug interaction (FICI, MICc); assay type: cell-based;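 note: simplified diagonal checkerboard screen pairing antifungals with FPPS inhibitors against Aspergillus fumigatus, with FICI calculated under the Loewe additivity model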
Experimental: as §1

[8] = system: Trichophyton rubrum; assay: MIC/MFC broth microdilution (CLSI); conditions: Trichophyton rubrum
Experimental: as §2

[9] = system: Candida glabrata; assay: MIC/MFC broth microdilution (CLSI); conditions: Nakaseomyces glabratus, CBS138;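 note: broth microdilution following CLSI M27-Ed4, MFC taken as the lowest drug level yielding no growth once MIC wells were subcultured on SDA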
Experimental: as §2

[10] = system: Saccharomyces cerevisiae; assay: checkerboard drug interaction (FICI, MICc); assay type: cell-based; set-up: INH MICc / INH MICc (ITR:INH) / INH MICc (KET:INH) / INH MICc (FLC:INH): unit not given beside the values;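 note: simplified diagonal checkerboard screen pairing antifungals with FPPS inhibitors, FICI calculated under the Loewe additivity model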
[11] = system: HEK-293T cells; assay: MTT reduction cytotoxicity assay; assay type: cell-based; conditions: Homo sapiens, HEK-293T, 72 h, HEK-293T, MTT, 72 h; read-out: HEK IC50
[12] = system: eight fungal species; assay: MIC/MFC summary across the eight fungal species of Table 1; assay type: cell-based
Experimental: The antifungal activity of these compounds was evaluated according to CLSI guidelines ([16]).

[13] = system: Trichophyton rubrum; assay: checkerboard drug interaction (FICI, MICc);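 note: simplified diagonal checkerboard screen pairing azole antifungals with FPPS inhibitors, FICI calculated under the Loewe additivity model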; assay type: cell-based; conditions: T. rubrum
Experimental: as §1

[14] = system: Cryptococcus neoformans; assay: MIC/MFC broth microdilution (CLSI); conditions: Cryptococcus neoformans;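 note: susceptibility testing followed the CLSI M27-Ed4 broth microdilution document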
Experimental: as §2

[15] = system: Cryptococcus deuterogattii; assay: MIC/MFC broth microdilution (CLSI); conditions: Cryptococcus deuterogattii;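 note: broth microdilution per CLSI M27-Ed4. MFC is the lowest concentration yielding no colonies when MIC broths are subcultured onto SDA plates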
Experimental: as §2

[16] = system: Aspergillus flavus; assay: MIC/MFC broth microdilution (CLSI); conditions: ATCC204304
Experimental: as §2

[17] = system: Aspergillus fumigatus; assay: MIC/MFC broth microdilution (CLSI); conditions: ATCC204305
Experimental: as §2

[18] = system: Saccharomyces cerevisiae; assay: MIC/MFC broth microdilution (CLSI); assay type: cell-based; conditions: Saccharomyces cerevisiae S288c
Experimental: as §2

[19] = system: Candida albicans; assay: checkerboard drug interaction (FICI, MICc);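 for all read-outs here: antifungal plus FPPS inhibitor combinations on Candida albicans tested by a simplified diagonal checkerboard screen, with FICI calculated under the Loewe additivity model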; assay type: cell-based; conditions: C. albicans; for INH FD (MIC-MICc fold decrease): fold decrease of inhibitor MIC
Experimental: as §1

[20] = FLC:INH combination, MIC of the inhibitor in combination with FLC
[21] = FLC:INH combination, fold decrease of FLC MIC
[22] = ITR:INH combination, MIC of the inhibitor in combination with ITR
[23] = ITR:INH combination, fold decrease of ITR MIC
[24] = KET:INH combination, MIC of the inhibitor in combination with KET
[25] = KET:INH combination, fold decrease of KET MIC
[26] = Fractional Inhibitory Concentration Index, fluconazole + inhibitor
[27] = Fractional Inhibitory Concentration Index, itraconazole + inhibitor
[28] = Fractional Inhibitory Concentration Index, ketoconazole + inhibitor
[29] = MIC of the inhibitor in combination with fluconazole
[30] = MIC of the inhibitor in combination with itraconazole
[31] = MIC of the inhibitor in combination with ketoconazole
[32] = MIC-MICc fold decrease of fluconazole, negative = increase
[33] = MIC-MICc fold decrease of itraconazole, negative = increase
[34] = MIC-MICc fold decrease of ketoconazole, negative = increase
[35] = MIC-MICc fold decrease of the inhibitor, with fluconazole
[36] = MIC-MICc fold decrease of the inhibitor, with itraconazole
[37] = MIC-MICc fold decrease of the inhibitor, with ketoconazole

**Q.** Which results are given for `CCCCCCCCCCCN1CCC[C@H]1C(=O)N[C@H](CC(=O)O)C(=O)O` [PDA11]?
**A.** FICI ([1]; FLC:INH combination): ≥4; INH MICc [1, 20]: 256; FLC FD (MIC-MICc fold decrease) [1, 21]: -4; INH FD (MIC-MICc fold decrease) ([1]; FLC:INH combination): 1; FICI ([1]; ITR:INH combination): ≥4; INH MICc [1, 22]: 256; ITR FD (MIC-MICc fold decrease) [1, 23]: < -4; INH FD (MIC-MICc fold decrease) ([1]; ITR:INH combination): 1; FICI ([1]; KET:INH combination): 1; INH MICc [1, 24]: 128; KET FD (MIC-MICc fold decrease) [1, 25]: 2; INH FD (MIC-MICc fold decrease) ([1]; KET:INH combination): 2; FICI (FLC:INH) [2, 26]: 1; FICI (ITR:INH) [2, 27]: 2; FICI (KET:INH) [2, 28]: 0.75; INH MICc (FLC:INH) [2, 29]: 128; INH MICc (ITR:INH) [2, 30]: 256; INH MICc (KET:INH) [2, 31]: 64; FLC FD (FLC:INH) [2, 32]: 2; ITR FD (ITR:INH) [2, 33]: 1; KET FD (KET:INH) [2, 34]: 2; INH FD (FLC:INH) [2, 35]: 2; INH FD (ITR:INH) [2, 36]: 1; INH FD (KET:INH) [2, 37]: 4; MFC [3]: > 128 µg/mL; MIC [3]: > 128 µg/mL; GM fungal MICc [4]: 78.3; FICI ([5]; FLC:INH combination): ≥4; INH MICc [5, 20]: 256; FLC FD (MIC-MICc fold decrease) [5, 21]: < -4; INH FD (MIC-MICc fold decrease) ([5]; FLC:INH combination): 1; FICI ([5]; ITR:INH combination): ≥4; INH MICc [5, 22]: 256; ITR FD (MIC-MICc fold decrease) [5, 23]: < -4; INH FD (MIC-MICc fold decrease) ([5]; ITR:INH combination): 1; FICI ([5]; KET:INH combination): ≥4; INH MICc [5, 24]: 128; KET FD (MIC-MICc fold decrease) [5, 25]: -4; INH FD (MIC-MICc fold decrease) ([5]; KET:INH combination): 2; FICI ([6]; FLC:INH combination): 0.63; INH MICc [6, 20]: 8; FLC FD (MIC-MICc fold decrease) [6, 21]: 2; INH FD (MIC-MICc fold decrease) ([6]; FLC:INH combination): 32; FICI ([6]; ITR:INH combination): 0.28; INH MICc [6, 22]: 2; ITR FD (MIC-MICc fold decrease) [6, 23]: 4; INH FD (MIC-MICc fold decrease) ([6]; ITR:INH combination): 128; FICI ([6]; KET:INH combination): 0.28; INH MICc [6, 24]: 2; KET FD (MIC-MICc fold decrease) [6, 25]: 4; INH FD (MIC-MICc fold decrease) ([6]; KET:INH combination): 128; FICI (FLC:INH) [7, 26]: 2; FICI (ITR:INH) [7, 27]: 0.51; FICI (KET:INH) [7, 28]: 1.5; INH MICc (FLC:INH) [7, 29]: 256; INH MICc (ITR:INH) [7, 30]: 2; INH MICc (KET:INH) [7, 31]: 128; FLC FD (FLC:INH) [7, 32]: 1; ITR FD (ITR:INH) [7, 33]: 2; KET FD (KET:INH) [7, 34]: 1; INH FD (FLC:INH) [7, 35]: 1; INH FD (ITR:INH) [7, 36]: 128; INH FD (KET:INH) [7, 37]: 2; MFC [8]: > 128 µg/mL; MIC [8]: > 128 µg/mL; MFC [9]: > 128 µg/mL; MIC [9]: > 128 µg/mL; FICI (FLC:INH) [10, 26]: 0.5; FICI (ITR:INH) [10, 27]: 1.5; FICI (KET:INH) [10, 28]: 0.5; INH MICc (FLC:INH) [10, 29]: 64; INH MICc (ITR:INH) [10, 30]: 128; INH MICc (KET:INH) [10, 31]: 64; FLC FD (FLC:INH) [10, 32]: 4; ITR FD (ITR:INH) [10, 33]: 1; KET FD (KET:INH) [10, 34]: 4; INH FD (FLC:INH) [10, 35]: 4; INH FD (ITR:INH) [10, 36]: 2; INH FD (KET:INH) [10, 37]: 4; IC50 [11]: > 256 µg/mL; MFC ([12]; across eight species, read-out: Geometric mean MFC): > 128 µg/mL; MIC ([12]; geometric mean across eight species, read-out: GM fungal MIC): > 128 µg/mL; MIC ([12]; read-out: Geometric mean MIC): > 128 µg/mL; FICI (FLC:INH) [13, 26]: 3; FICI (ITR:INH) [13, 27]: 2; FICI (KET:INH) [13, 28]: 3; INH MICc (FLC:INH) [13, 29]: 256; INH MICc (ITR:INH) [13, 30]: 256; INH MICc (KET:INH) [13, 31]: 256; FLC FD (FLC:INH) [13, 32]: -2; ITR FD (ITR:INH) [13, 33]: 1; KET FD (KET:INH) [13, 34]: -2; INH FD (FLC:INH) [13, 35]: 1; INH FD (ITR:INH) [13, 36]: 1; INH FD (KET:INH) [13, 37]: 1; MFC [14]: > 128 µg/mL; MIC [14]: > 128 µg/mL; MFC [15]: > 128 µg/mL; MIC [15]: > 128 µg/mL; MFC [16]: > 128 µg/mL; MIC [16]: > 128 µg/mL; MFC [17]: > 128 µg/mL; MIC [17]: > 128 µg/mL; MFC [18]: > 128 µg/mL; MIC [18]: > 128 µg/mL; FICI ([19]; FLC:INH combination): ≥4; INH MICc [19, 20]: 128; FLC FD (MIC-MICc fold decrease) [19, 21]: < -4; INH FD (MIC-MICc fold decrease) ([19]; FLC:INH combination): 2; FICI ([19]; ITR:INH combination): ≥4; INH MICc [19, 22]: 128; ITR FD (MIC-MICc fold decrease) [19, 23]: < -4; INH FD (MIC-MICc fold decrease) ([19]; ITR:INH combination): 2; FICI ([19]; KET:INH combination): ≥4; INH MICc [19, 24]: 64; KET FD (MIC-MICc fold decrease) [19, 25]: < -4; INH FD (MIC-MICc fold decrease) ([19]; KET:INH combination): 4

From article PMC12892976, “Alkylation-based optimization of antifungal FPPS inhibitors yields a potent, broad-spectrum lipophilic zoledronate derivative” (mBio, 2025)
